Data published in ChEMBL document CHEMBL4422622, “Identification of Mineralocorticoid Receptor Modulators with Low Impact on Electrolyte Homeostasis but Maintained Organ Protection” (J Med Chem, 2019).
≈ marks a conversion by molar mass, not a printed value.

Experiments:
[1] = Intrinsic clearance in human liver microsomes at 1 uM measured up to 30 mins in presence of NADPH by LC-MS/MS analysis; format: ADME, Microsome; details: read-out: CLH
[2] = Kinetic solubility of compound at pH 7.4 after 24 hrs by shake-flask assay; format: physicochemical; details: buffer, read-out: -log(solubility) (converted)
[3] = Octanol-water partitioning co-efficient, log D of the compound at pH 7.4 by LC/MS/MS analysis; format: physicochemical
[4] = target: T1, Mineralocorticoid receptor (Homo sapiens, UniProt P08235)
T1 sequence (P08235 whole entry): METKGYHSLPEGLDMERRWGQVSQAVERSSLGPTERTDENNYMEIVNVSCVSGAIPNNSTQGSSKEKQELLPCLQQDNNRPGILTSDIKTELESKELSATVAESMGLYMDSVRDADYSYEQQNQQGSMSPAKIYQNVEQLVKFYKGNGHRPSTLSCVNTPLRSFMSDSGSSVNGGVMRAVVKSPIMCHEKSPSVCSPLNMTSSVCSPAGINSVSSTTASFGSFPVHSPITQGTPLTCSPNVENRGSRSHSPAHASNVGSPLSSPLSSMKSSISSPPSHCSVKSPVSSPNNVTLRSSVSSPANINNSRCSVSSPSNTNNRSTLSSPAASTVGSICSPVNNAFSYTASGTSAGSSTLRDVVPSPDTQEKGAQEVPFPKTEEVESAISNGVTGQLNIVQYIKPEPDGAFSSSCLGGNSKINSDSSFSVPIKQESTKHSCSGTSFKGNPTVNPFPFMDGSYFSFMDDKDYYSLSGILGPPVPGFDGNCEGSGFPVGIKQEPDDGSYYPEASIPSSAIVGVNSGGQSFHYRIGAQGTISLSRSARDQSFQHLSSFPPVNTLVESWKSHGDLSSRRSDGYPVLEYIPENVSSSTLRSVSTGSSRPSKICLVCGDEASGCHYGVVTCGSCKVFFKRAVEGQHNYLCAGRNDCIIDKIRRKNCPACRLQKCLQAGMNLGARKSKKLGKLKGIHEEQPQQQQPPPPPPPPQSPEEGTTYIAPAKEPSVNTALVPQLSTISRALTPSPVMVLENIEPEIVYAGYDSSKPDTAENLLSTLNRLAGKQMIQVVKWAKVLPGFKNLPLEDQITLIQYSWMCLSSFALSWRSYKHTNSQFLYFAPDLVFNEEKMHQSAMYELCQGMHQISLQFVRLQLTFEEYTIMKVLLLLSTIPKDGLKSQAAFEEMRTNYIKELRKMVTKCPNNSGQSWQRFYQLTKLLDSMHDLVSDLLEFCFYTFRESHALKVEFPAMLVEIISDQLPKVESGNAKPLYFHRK
Description: Antagonist activity at gal4-fused human mineralocorticoid receptor LBD expressed in UAS-MR-bla HEK293 cells by luciferase reporter gene assay

[5] = target: T1, Mineralocorticoid receptor; remark: listed apart in the source
Description: Displacement of [3H]-aldosterone to human mineralocorticoid receptor LBD by radiometric binding assay

[6] = Intrinsic clearance in human hepatocytes assessed per million cells at 1 uM measured up to 120 mins in presence of NADPH by LC-MS/MS analysis; format: ADME, cell-based, Hepatocyte; details: read-out: CLH
[7] = Apparent permeability in human Caco2 cells at 10 uM after 45 to 120 mins by LC/MS/MS analysis; format: ADME, cell-based; details: Caco-2
Glucocorticoid receptor = target: T2, Glucocorticoid receptor (Homo sapiens, UniProt P04150)
T2 sequence (P04150 whole entry): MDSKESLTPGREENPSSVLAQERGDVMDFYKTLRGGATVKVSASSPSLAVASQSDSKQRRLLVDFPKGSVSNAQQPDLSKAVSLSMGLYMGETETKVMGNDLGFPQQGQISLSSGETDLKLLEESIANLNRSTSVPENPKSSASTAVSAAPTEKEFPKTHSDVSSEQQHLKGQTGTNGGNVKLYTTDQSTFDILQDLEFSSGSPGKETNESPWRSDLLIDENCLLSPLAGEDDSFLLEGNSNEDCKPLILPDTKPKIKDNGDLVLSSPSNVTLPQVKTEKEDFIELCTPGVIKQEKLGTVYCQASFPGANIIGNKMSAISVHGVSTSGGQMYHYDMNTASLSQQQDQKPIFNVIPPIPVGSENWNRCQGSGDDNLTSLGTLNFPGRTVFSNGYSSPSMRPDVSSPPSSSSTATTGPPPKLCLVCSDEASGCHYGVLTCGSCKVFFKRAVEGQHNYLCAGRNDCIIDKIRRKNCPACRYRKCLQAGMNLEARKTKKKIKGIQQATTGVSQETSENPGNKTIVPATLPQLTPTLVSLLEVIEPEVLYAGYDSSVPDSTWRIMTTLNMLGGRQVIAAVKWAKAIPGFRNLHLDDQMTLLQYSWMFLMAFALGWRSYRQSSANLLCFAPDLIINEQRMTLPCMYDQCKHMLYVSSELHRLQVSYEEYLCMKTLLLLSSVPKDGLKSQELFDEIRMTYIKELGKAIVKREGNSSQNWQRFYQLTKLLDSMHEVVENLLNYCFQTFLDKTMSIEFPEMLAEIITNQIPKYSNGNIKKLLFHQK
Description: Binding affinity to recombinant human GR LBD by fluormone GS red-fluorescence polarization assay

microsomal CLint at 1 µM [1] [µL/min/mg] | solubility kinetic at 24 h [2] [µM] | logD [3] | IC50 [4] [nM] | Ki [5] [nM] | hepatocyte CLint at 1 µM [6] [µL/min/1e6 cells] | Papp at 10 µM [7] [×10⁻⁶ cm/s] | Ki (Glucocorticoid receptor) [nM] | SMILES
> 300 | 398 (≈ 159 µg/mL) | 2.2 | 316 | 63.1 | – | – | – | COC(=O)C[C@H]1COc2cc(F)ccc2N1C(=O)c1ccc2c(c1)NC(=O)CO2
128 | 50.1 (≈ 16.2 µg/mL) | 2.7 | 1580 | 794 | – | – | – | CC1CCc2ccccc2N1C(=O)c1ccc2c(c1)NC(=O)CO2 (racemic)
– | – | 2.2 | – | – | 5 | 23 | 126 | CNC(=O)C[C@H]1COc2cc(Br)ccc2N1C(=O)c1ccc2c(c1)NC(=O)CO2
– | – | 1.1 | – | – | < 1 | 3 | 631 | NC(=O)C[C@H]1COc2cc(F)ccc2N1C(=O)c1ccc2c(c1)NC(=O)CO2
– | – | 2.7 | – | – | – | – | – | C[C@@H]1CN(c2ccc3c(n2)NC(=O)CO3)[C@H](c2ccccc2)CO1
120 | < 0.794 | 3.3 | 6310 | – | – | – | – | Cc1ccc(C2CCCCN2S(=O)(=O)c2ccc3c(c2)NC(=O)CO3)cc1 (racemic)
– | – | 0.4 | > 10000 | > 10000 | < 1 | < 0.6 | > 15800 | NC(=O)C[C@H]1COCc2cc(F)ccc2N1C(=O)c1ccc2c(c1)NC(=O)CO2
– | – | 4 | – | – | – | – | – | O=c1[nH]c2ccc(/C=C3\c4ccccc4COc4cc(F)ccc43)cc2[nH]1
– | – | 1.4 | 2.51 | 0.316 | 8 | 10 | 20 | CS(=O)(=O)C[C@H]1COc2cc(F)ccc2N1C(=O)c1ccc2c(c1)NC(=O)CO2
– | – | 2.4 | 79.4 | 12.6 | 3 | 19 | 398 | CNC(=O)C[C@H]1COc2cc(C(F)(F)F)ccc2N1C(=O)c1ccc2c(c1)NC(=O)CO2
> 300 | 20 (≈ 7.15 µg/mL) | 3.3 | 5010 | 2000 | – | – | – | CC1CCc2ccccc2N1S(=O)(=O)c1ccc2c(c1)NC(=O)CO2 (racemic)
– | – | 1.3 | 200 | 39.8 | < 1 | – | 1260 | NS(=O)(=O)C[C@H]1COc2cc(F)ccc2N1C(=O)c1ccc2c(c1)NCCO2
34 | 794 (≈ 277 µg/mL) | 1.5 | 3980 | 501 | – | – | – | N#CC[C@H]1COc2ccccc2N1C(=O)c1ccc2c(c1)NC(=O)CO2
– | – | 1.3 | – | – | < 1 | 6.2 | – | CNC(=O)C[C@@H]1COc2cc(F)ccc2N1C(=O)c1ccc2c(c1)NC(=O)CO2
– | – | 1.4 | 2000 | 316 | < 1.8 | 6.3 | 6310 | CNC(=O)C[C@H]1CCc2cc(F)ccc2N1C(=O)c1ccc2c(c1)NC(=O)CO2
– | – | 1.6 | 100 | 3.98 | 2.8 | 14 | 316 | CNC(=O)C[C@H]1COc2cc(C)ccc2N1C(=O)c1ccc2c(c1)NC(=O)CO2
– | – | 1.7 | – | – | 1.5 | 5.6 | 31.6 | NC(=O)C[C@H]1COc2cc(Cl)ccc2N1C(=O)c1ccc2c(c1)NC(=O)CO2

microsomal CLint at 1 µM [1] [µL/min/mg] | solubility kinetic at 24 h [2] [µM] | logD [3] | IC50 [4] [nM] | Ki [5] [nM] | hepatocyte CLint at 1 µM [6] [µL/min/1e6 cells] | Papp at 10 µM [7] [×10⁻⁶ cm/s] | Ki (Glucocorticoid receptor) [nM] | SMILES
– | – | 3.1 | 20 | 0.631 | 13 | – | 7.94 | CNC(=O)C[C@H]1COc2cc(F)c(CC(C)C)cc2N1C(=O)c1ccc2c(c1)NC(=O)CO2
– | – | 1.8 | 63.1 | 15.8 | 60 | 38 | 1000 | Cc1ccc2c(c1)OC[C@](C)(CS(C)(=O)=O)N2C(=O)c1ccc2c(c1)NC(=O)CO2
– | – | > 4.4 | 251 | 10 | 26 | – | 200 | O=C1COc2ccc(C(=O)N3c4cc(CC5CCCCC5)c(F)cc4OC[C@@H]3CCO)cc2N1
– | – | 3.3 | 2.51 | 0.501 | 11 | – | 1.26 | CC(C)Cc1cc2c(cc1Cl)OC[C@H](CC(N)=O)N2C(=O)c1ccc2c(c1)NC(=O)CO2
– | – | 0.9 | 6310 | 1000 | < 1 | 1.5 | > 12600 | CNC(=O)C[C@H]1COc2cc(C#N)ccc2N1C(=O)c1ccc2c(c1)NC(=O)CO2
– | – | 2.4 | – | 501 | – | – | – | N=C(c1ccc2c(c1)NC(=O)CO2)[C@@H](Sc1nnc[nH]1)c1ccccc1
– | – | 1.6 | > 10000 | > 10000 | 3 | 10 | > 15800 | CCNC(=O)CC1COc2cc(F)ccc2N1C(=O)c1ccc2c(c1)NC(=O)CO2 (racemic)
– | – | 1.8 | 200 | 10 | < 2 | – | 79.4 | CNC(=O)C[C@H]1COc2cc(F)c(OC(C)C)cc2N1C(=O)c1ccc2c(c1)NC(=O)CO2
– | – | 2.8 | 0.794 | < 0.316 | 18 | – | 1.58 | CC(C)Cc1cc2c(cc1F)OC[C@H](CS(N)(=O)=O)N2C(=O)c1ccc2c(c1)NC(=O)CO2
– | – | 2.2 | 100 | 7.94 | 6.1 | – | 126 | CNC(=O)C[C@H]1COc2cc(F)c(CC(C)C)cc2N1C(=O)c1ccnc(NC(N)=O)c1
– | – | 0.9 | > 10000 | > 6310 | < 1 | – | > 15800 | CNC(=O)C[C@H]1COc2cc(F)ccc2N1C(=O)c1ccc2c(c1)NC(=O)OC2
– | – | 1.5 | 126 | 7.94 | < 1 | < 0.81 | 316 | NC(=O)C[C@H]1CNc2cc(Cl)ccc2N1C(=O)c1ccc2c(c1)NC(=O)CO2
– | – | 2 | 79.4 | 3.16 | < 2 | – | 2.51 | NC(=O)C[C@H]1COc2cc(F)c(C3CC3)cc2N1C(=O)c1ccc2c(c1)NC(=O)CO2
– | – | 1.1 | – | – | < 1 | 6.8 | 3160 | CNC(=O)C[C@H]1COc2ccccc2N1C(=O)c1ccc2c(c1)NC(=O)CO2
– | – | 1.2 | 2000 | 398 | 2.5 | 7.8 | > 12600 | CNC(=O)C[C@H]1COc2cc(Cl)cc(C)c2N1C(=O)c1ccc2c(c1)NC(=O)CO2
– | – | 2.3 | 251 | 50.1 | 3.6 | – | 631 | NS(=O)(=O)C[C@H]1COc2cc(F)ccc2N1C(=O)c1ccc2cc[nH]c2c1
